Experiments:
Assay in all cases: mycelial growth from inoculum plugs in amended basal nutrient solution
Rhizoctonia solani = format: cell-based; conditions: fungicide control
Protocol: (§1) The efficacy of the garlic extract was tested against nine (9) soil-borne fungi that cause root and lower stem rots of plants. The fungal pathogens included: Pythium aphanidermatum, Pythium irregular, Pythium ultimum, Phytophthora capsici, Phytophthora cinnamomi, Phytophthora nicotiana, Rhizoctonia solani, Fusarium oxysporum fsp. lycopersici, Fusarium oxysporum f.sp. spinaciae, and Thielaviopsis basicola. All isolates used in this investigation were known to be pathogenic to various cultivated plant species.
(§2) All isolates of Pythium aphanidermatum, Pythium irregular, Pythum ultimum, Phytophthora capsici, Phytophthora cinnamomi, Phytophthora nicotiana, Rhizoctonia solani, Fusarium oxysporum f.sp. lycopersici, Fusarium oxysporum f.sp. spinaciae were grown on standard corn meal agar (CMA) for 8 to 9 days. Plugs from inoculum plates were taken using a #4 cork borer (5 mm diameter). Inoculum plugs were placed into 5-cm sterile plastic petri dishes containing 10 ml of a basal nutrient solution that consisted of 60% (v/v) clarified V-8 juice and sterile distilled water (SDW). Basal nutrient solutions were amended with the appropriate treatments. […] Cultures were placed into a growth chamber and maintained in the dark at 22(C(1(C. After 48 hours, mycelial growth (if any was visible) from culture plugs was measured.

[1] = tested on: Pythium aphanidermatum, Pythium irregular, Pythium ultimum; format: cell-based, Pythium species; conditions: basal nutrient solution amended with fungicide control; 48 hours
Protocol: as §1, §2

[2] = tested on: Phytophthora capsici, Phytophthora cinnamomi, Phytophthora nicotiana; format: cell-based, Phytophthora species; conditions: basal nutrient solution amended with fungicide control; 48 hours
Protocol: as §1, §2

SMILES | growth on amended basal nutrient solution (Rhizoctonia solani; first replication (inappropriate concentration)) | growth on amended basal nutrient solution (Rhizoctonia solani; second replication) | growth from the inoculum plugs [1] | growth from the inoculum plugs [2]
O=[N+]([O-])c1c(Cl)c(Cl)c(Cl)c(Cl)c1Cl [PCNB] | limited amount of growth | did not grow |  | 
COCC(=O)N(c1c(C)cccc1C)C(C)C(=O)OC (stereo not shown) [metalaxyl] |  |  | none | none

Reference: US20070009617A1, “Method for preventing fungal growth in plants” (priority 2003, published 2007)
